Laboratory results published in PMC11062922 (Nature Chemical Biology, 2023).
Values joined by “and” are separate entries in the source; they are usually repeats but may differ in a detail not shown here. Equal entries are not always repeated. Where two headings read alike, the source gives them in different places.

Experiments:
[1] = biological target: T1, CSK (Homo sapiens, UniProt P41240); assay: Kinobeads two-dose competition binding: CSK; details: read-out: Lestaurtinib Drugmatrix value, Gene Name CSK
T1 construct: endogenous in cells

[2] = biological target: T2, NTRK1 (Homo sapiens, UniProt P04629); assay: Kinobeads competition binding, Lestaurtinib control replicates: NTRK1; details: read-out: Lestaurtinib Drugmatrix value, NTRK1; Gene Name NTRK1; one column per experiment number and replicate (R1-R3)
T2 construct: endogenous in cells

[3] = biological target: T3, AURKB (Homo sapiens, UniProt Q96GD4); assay: Kinobeads two-dose competition binding: AURKB; details: read-out: Lestaurtinib Drugmatrix value, Gene Name AURKB
T3 construct: endogenous in cells

[4] = biological target: T4, EPHA1 (Homo sapiens, UniProt P21709); assay: Kinobeads two-dose competition binding: EPHA1; details: read-out: Lestaurtinib Drugmatrix value, Gene Name EPHA1
T4 construct: endogenous in cells
T4 sequence (P21709 26-976): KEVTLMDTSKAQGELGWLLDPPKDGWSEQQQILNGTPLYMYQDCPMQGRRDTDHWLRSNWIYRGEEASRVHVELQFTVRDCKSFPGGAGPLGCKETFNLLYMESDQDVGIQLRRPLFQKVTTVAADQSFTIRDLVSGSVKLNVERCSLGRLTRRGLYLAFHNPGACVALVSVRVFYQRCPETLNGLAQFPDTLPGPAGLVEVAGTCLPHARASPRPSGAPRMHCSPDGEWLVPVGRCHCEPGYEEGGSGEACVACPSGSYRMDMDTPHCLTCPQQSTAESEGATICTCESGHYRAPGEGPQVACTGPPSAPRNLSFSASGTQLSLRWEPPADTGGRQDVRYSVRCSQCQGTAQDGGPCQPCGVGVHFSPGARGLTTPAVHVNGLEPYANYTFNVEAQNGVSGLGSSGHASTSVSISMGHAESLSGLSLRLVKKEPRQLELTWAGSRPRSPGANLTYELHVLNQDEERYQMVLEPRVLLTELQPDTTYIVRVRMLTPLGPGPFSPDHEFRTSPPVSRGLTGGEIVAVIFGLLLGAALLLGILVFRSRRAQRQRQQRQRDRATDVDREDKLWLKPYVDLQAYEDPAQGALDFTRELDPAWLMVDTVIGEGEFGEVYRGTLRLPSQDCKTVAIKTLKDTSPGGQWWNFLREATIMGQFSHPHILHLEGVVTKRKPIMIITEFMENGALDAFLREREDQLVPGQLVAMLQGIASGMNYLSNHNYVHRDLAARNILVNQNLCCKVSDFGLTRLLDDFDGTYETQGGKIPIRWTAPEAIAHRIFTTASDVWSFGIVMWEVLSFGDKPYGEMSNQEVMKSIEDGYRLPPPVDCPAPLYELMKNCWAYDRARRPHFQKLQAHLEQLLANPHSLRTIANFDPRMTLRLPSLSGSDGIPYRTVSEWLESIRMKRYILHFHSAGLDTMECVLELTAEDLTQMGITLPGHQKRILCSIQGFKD

[5] = biological target: T5, PRKAG2 (Homo sapiens, UniProt Q9UGJ0); assay: Kinobeads competition binding, Lestaurtinib control replicates: PRKAG2; details: read-out: Lestaurtinib Drugmatrix value, PRKAG2; Gene Name PRKAG2; one column per experiment number and replicate (R1-R3)
T5 construct: endogenous in cells

[6] = biological target: T6, PIK3CA (Homo sapiens, UniProt P42336); assay: Kinobeads competition binding, Lestaurtinib control replicates: PIK3CA; details: read-out: Lestaurtinib Drugmatrix value; Gene Name PIK3CA; one column per experiment number and replicate (R1-R3)
T6 construct: a mixture of lysates from five cancer cell lines; endogenous in cells

[7] = biological target: T7, MAPKAPK2 (Homo sapiens, UniProt P49137); assay: Kinobeads full dose-response competition binding: MAPKAPK2; details: Gene Name MAPKAPK2
T7 construct: endogenous in cells

[8] = biological target: T8, TGFBR2 (Homo sapiens, UniProt P37173); assay: Kinobeads full dose-response competition binding: TGFBR2; details: Gene Name TGFBR2
T8 construct: endogenous in cells

[9] = biological target: T9, SPR (Homo sapiens, UniProt P35270); assay: Kinobeads full dose-response competition binding: SPR; details: Gene Name SPR
T9 construct: endogenous in cells

[10] = biological target: T10, PRKACB (Homo sapiens, UniProt P22694); assay: Kinobeads full dose-response competition binding: PRKACB; details: Gene Name PRKACB
T10 construct: endogenous in cells

[11] = biological target: T11, PRKACA (Homo sapiens, UniProt P17612); assay: Kinobeads full dose-response competition binding: PRKACA; details: Gene Name PRKACA
T11 construct: a mixture of lysates from five cancer cell lines; endogenous in cells

[12] = biological target: T12, CK2alpha2 (CSNK2A2) (Homo sapiens, UniProt P19784); assay: Recombinant kinase activity assay (ProQinase, FlashPlate radiometric): CK2alpha2; assay type: biochemical
T12 construct: purchased ProQinase
Protocol: Kinase activity assays were performed by ProQinase. Dose-dependent activity inhibition of CDK1/cyclinB, CK2alpha1 and CK2alpha2 were measured using a FlashPlateTM-based radiometric assay at KM (ATP) of the respective kinase.

[13] = EC50 with Correction, doses in nM, read-out: apparent Kd
[14] = eight-dose curve fit, doses in nM

T9 sequence (P35270 whole entry): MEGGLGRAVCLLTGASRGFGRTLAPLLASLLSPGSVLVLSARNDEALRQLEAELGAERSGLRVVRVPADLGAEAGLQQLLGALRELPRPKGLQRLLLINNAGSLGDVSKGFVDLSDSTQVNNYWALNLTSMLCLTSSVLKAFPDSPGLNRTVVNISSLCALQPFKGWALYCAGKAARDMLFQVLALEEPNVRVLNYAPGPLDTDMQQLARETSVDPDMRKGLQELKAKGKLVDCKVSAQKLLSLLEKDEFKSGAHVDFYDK
T8 sequence (P37173 23-567): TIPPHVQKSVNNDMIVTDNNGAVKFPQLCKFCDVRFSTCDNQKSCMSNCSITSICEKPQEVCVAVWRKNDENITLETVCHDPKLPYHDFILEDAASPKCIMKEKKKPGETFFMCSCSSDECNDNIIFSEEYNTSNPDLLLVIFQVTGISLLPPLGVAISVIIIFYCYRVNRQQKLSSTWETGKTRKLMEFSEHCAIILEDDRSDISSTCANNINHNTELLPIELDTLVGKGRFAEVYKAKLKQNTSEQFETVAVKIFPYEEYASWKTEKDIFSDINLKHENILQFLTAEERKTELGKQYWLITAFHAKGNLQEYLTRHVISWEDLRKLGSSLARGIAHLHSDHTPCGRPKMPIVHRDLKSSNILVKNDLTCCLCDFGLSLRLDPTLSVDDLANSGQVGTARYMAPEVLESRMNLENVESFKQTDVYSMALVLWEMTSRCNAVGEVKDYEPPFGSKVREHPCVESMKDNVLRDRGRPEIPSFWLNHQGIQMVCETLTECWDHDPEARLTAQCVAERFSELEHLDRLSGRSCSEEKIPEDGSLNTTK
T5 sequence (Q9UGJ0 whole entry): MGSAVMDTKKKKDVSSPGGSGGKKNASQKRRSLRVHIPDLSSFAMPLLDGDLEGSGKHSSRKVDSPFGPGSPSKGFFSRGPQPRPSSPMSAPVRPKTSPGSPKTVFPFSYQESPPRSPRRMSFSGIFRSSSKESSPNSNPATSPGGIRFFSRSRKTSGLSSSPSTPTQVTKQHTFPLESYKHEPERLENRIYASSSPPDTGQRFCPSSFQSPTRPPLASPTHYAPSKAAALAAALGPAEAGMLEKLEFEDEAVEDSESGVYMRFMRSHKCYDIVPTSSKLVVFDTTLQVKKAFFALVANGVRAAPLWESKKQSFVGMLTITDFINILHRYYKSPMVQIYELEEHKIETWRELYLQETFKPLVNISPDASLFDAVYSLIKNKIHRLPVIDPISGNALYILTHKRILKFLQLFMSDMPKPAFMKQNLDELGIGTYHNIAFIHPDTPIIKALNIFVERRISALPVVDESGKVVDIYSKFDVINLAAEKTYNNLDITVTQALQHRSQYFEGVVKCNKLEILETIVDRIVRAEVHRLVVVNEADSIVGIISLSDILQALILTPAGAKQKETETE
T5 sequence (Q13131 whole entry partner): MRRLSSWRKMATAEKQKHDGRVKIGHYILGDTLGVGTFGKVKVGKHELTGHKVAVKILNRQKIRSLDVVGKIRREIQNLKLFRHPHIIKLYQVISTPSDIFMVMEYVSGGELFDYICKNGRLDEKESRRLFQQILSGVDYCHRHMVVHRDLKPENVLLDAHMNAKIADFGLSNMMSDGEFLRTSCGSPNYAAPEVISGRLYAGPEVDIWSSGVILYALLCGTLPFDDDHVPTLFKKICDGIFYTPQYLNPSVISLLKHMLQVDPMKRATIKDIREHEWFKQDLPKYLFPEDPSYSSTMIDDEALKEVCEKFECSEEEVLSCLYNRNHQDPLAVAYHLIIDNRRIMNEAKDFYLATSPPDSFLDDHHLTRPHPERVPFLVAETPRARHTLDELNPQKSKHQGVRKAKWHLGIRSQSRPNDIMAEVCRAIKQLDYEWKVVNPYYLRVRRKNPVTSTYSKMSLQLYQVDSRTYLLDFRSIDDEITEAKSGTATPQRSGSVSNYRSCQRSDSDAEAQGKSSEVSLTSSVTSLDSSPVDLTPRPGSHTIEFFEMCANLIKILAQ
T5 sequence (Q9Y478 2-270 partner limits assumed): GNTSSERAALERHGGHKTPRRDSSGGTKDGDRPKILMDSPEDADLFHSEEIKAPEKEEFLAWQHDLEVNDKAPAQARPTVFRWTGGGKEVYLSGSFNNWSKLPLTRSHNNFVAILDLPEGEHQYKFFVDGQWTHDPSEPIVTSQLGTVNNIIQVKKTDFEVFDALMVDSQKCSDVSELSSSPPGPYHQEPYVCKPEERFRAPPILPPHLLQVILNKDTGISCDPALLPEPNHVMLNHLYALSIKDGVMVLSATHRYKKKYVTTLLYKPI
T7 sequence (P49137 whole entry): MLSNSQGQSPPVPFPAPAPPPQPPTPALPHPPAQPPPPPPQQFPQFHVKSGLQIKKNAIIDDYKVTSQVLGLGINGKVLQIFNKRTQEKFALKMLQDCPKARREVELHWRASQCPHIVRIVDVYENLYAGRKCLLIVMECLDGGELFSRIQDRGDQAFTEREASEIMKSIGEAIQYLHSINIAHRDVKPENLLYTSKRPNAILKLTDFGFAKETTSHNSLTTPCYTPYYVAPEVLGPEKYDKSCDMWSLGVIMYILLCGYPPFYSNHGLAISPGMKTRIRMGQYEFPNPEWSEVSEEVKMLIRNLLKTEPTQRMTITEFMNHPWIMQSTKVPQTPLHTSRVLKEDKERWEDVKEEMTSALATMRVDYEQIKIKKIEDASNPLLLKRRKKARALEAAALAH
T12 sequence (P19784 whole entry): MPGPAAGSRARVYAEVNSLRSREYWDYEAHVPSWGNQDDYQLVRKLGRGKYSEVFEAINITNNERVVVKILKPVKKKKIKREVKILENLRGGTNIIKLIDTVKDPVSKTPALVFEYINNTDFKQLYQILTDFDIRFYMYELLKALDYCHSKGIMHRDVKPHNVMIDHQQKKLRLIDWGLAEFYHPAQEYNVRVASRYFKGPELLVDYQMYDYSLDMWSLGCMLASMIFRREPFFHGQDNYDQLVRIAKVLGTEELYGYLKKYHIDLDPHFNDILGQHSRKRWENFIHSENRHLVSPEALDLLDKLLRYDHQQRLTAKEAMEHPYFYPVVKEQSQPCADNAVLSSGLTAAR
T2 sequence (P04629 33-796): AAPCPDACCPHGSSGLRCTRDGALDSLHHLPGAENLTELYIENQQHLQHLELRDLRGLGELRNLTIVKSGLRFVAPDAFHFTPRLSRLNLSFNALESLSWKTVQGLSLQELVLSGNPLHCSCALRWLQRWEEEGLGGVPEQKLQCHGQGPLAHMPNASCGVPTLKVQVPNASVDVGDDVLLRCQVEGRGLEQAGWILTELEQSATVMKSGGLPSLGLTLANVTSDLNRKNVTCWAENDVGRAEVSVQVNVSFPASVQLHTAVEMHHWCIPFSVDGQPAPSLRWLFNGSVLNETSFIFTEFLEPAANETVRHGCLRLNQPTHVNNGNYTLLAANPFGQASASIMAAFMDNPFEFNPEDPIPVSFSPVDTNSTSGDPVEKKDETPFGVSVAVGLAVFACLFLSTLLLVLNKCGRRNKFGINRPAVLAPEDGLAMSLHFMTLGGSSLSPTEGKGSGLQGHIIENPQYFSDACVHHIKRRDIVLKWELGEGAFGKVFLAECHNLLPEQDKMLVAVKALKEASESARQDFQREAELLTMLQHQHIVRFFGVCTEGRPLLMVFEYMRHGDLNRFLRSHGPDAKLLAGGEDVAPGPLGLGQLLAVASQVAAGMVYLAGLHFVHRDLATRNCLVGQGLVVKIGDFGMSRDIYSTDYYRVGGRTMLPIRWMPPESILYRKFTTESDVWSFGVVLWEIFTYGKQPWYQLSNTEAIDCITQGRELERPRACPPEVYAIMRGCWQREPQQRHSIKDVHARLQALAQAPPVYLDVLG
T1 sequence (P41240 whole entry): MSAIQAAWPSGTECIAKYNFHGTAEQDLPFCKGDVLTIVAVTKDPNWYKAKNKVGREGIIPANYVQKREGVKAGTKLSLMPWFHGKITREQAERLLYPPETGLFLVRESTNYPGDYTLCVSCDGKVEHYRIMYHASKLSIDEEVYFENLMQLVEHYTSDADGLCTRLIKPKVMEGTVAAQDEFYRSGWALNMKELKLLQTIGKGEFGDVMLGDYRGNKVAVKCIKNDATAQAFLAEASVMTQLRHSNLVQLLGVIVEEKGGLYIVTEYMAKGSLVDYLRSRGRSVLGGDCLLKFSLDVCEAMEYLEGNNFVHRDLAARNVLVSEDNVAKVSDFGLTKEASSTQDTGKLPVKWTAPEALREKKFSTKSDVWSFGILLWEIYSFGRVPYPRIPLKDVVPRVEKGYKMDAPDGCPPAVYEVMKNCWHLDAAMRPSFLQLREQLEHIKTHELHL
T3 sequence (Q96GD4 whole entry): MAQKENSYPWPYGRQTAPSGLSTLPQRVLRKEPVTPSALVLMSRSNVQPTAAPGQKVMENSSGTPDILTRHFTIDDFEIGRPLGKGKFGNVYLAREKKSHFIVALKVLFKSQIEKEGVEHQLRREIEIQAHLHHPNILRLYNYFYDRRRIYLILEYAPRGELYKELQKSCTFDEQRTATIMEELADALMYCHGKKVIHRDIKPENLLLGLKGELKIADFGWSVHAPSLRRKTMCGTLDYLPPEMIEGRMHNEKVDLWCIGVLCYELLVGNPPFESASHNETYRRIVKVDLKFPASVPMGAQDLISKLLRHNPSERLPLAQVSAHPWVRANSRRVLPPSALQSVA

## C[C@]12O[C@H](C[C@]1(O)CO)n1c3ccccc3c3c4c(c5c6ccccc6n2c5c31)CNC4=O [Lestaurtinib]
[1]
  potency estimated from few doses: 526 nM
[2]
  potency estimated from few doses: 772 nM
[3]
  potency estimated from few doses: 146 nM
[4]
  potency estimated from few doses: 297 nM
[5]
  potency estimated from few doses: 888 nM (2×) and 629 nM and 352 nM and 850 nM and 720 nM
[6]
  potency estimated from few doses: 156 nM

## NCc1ccc(-c2nc(-c3ccncc3)c(-c3ccc(Cl)c(O)c3)[nH]2)cc1 [SB-476429-A]
[7]; 0.3nM compound, DMSO = 1
  Relative Intensity 0.3nM: 1.233
[7]; 1nM compound, DMSO = 1
  Relative Intensity 1nM: 1.094
[7]; 3nM compound, DMSO = 1
  Relative Intensity 3nM: 1.023
[7]; 10nM compound, DMSO = 1
  Relative Intensity 10nM: 1.156
[7]; 30nM compound, DMSO = 1
  Relative Intensity 30nM: 0.8314
[7]; 100nM compound, DMSO = 1
  Relative Intensity 100nM: 0.6869
[7]; 300nM compound, DMSO = 1
  Relative Intensity 300nM: 0.5275
[7]; 1000nM compound, DMSO = 1
  Relative Intensity 1000nM: 0
[7]; [13]
  Kd: 174 nM
[7]; [14]
  EC50: 174 nM
[8]; 0.3nM compound, DMSO = 1
  Relative Intensity 0.3nM: 0.9776
[8]; 1nM compound, DMSO = 1
  Relative Intensity 1nM: 1.003
[8]; 3nM compound, DMSO = 1
  Relative Intensity 3nM: 1.034
[8]; 10nM compound, DMSO = 1
  Relative Intensity 10nM: 1.093
[8]; 30nM compound, DMSO = 1
  Relative Intensity 30nM: 0.9102
[8]; 100nM compound, DMSO = 1
  Relative Intensity 100nM: 0.8621
[8]; 300nM compound, DMSO = 1
  Relative Intensity 300nM: 0.7152
[8]; 1000nM compound, DMSO = 1
  Relative Intensity 1000nM: 0.41
[8]; [13]
  Kd: 767 nM
[8]; [14]
  EC50: 871 nM
[9]; 0.3nM compound, DMSO = 1
  Relative Intensity 0.3nM: 0.9627
[9]; 1nM compound, DMSO = 1
  Relative Intensity 1nM: 0.9101
[9]; 3nM compound, DMSO = 1
  Relative Intensity 3nM: 0.8696
[9]; 10nM compound, DMSO = 1
  Relative Intensity 10nM: 0.7693
[9]; 30nM compound, DMSO = 1
  Relative Intensity 30nM: 0.5216
[9]; 100nM compound, DMSO = 1
  Relative Intensity 100nM: 0.1442
[9]; 300nM compound, DMSO = 1
  Relative Intensity 300nM: 0.02935
[9]; 1000nM compound, DMSO = 1
  Relative Intensity 1000nM: 0.01082
[9]; [13]
  Kd: 32.8 nM
[9]; [14]
  EC50: 32.8 nM

## CCn1c(-c2nonc2N)nc2c(C#CC(C)(C)O)nc(OCCN)cc21 [GSK902056A]
[10]; 0.3nM compound, DMSO = 1
  Relative Intensity 0.3nM: 0.9369
[10]; 1nM compound, DMSO = 1
  Relative Intensity 1nM: 1.09
[10]; 3nM compound, DMSO = 1
  Relative Intensity 3nM: 1.112
[10]; 10nM compound, DMSO = 1
  Relative Intensity 10nM: 0.9825
[10]; 30nM compound, DMSO = 1
  Relative Intensity 30nM: 0.9287
[10]; 100nM compound, DMSO = 1
  Relative Intensity 100nM: 0.758
[10]; 300nM compound, DMSO = 1
  Relative Intensity 300nM: 0.7526
[10]; 1000nM compound, DMSO = 1
  Relative Intensity 1000nM: 0.5592
[10]; [13]
  Kd: 145 nM
[10]; [14]
  EC50: 145 nM
[11]; 0.3nM compound, DMSO = 1
  Relative Intensity 0.3nM: 1.008
[11]; 1nM compound, DMSO = 1
  Relative Intensity 1nM: 0.9404
[11]; 3nM compound, DMSO = 1
  Relative Intensity 3nM: 0.9819
[11]; 10nM compound, DMSO = 1
  Relative Intensity 10nM: 0.932
[11]; 30nM compound, DMSO = 1
  Relative Intensity 30nM: 0.8034
[11]; 100nM compound, DMSO = 1
  Relative Intensity 100nM: 0.7942
[11]; 300nM compound, DMSO = 1
  Relative Intensity 300nM: 0.6618
[11]; 1000nM compound, DMSO = 1
  Relative Intensity 1000nM: 0.5702
[11]; [13]
  Kd: 212 nM
[11]; [14]
  EC50: 230 nM

## COc1cc(Nc2ncc3c(C)nc(-c4cc5ccccc5[nH]4)n3n2)cc(OC)c1OC [GW869516X]
[12]; Enzyme CK2alpha2, Highest Assay Concentration 1.00E-06 M, read-out: IC50
  IC50: 33.7 nM
[12]; recombinant kinase activity assay at KM (ATP), read-out: Activity IC50 CSNK2A2
  IC50: 34 nM
